From article PMC4862170, “Genomic screens identify a new phytobacterial microbe-associated molecular pattern and the cognate Arabidopsis receptor-like kinase that mediates its immune elicitation” (Genome Biology, 2016)
Where no end group is shown, it is not given here.

Target: T1, XPS1 ectodomain (Arabidopsis thaliana, UniProt Q9SD62)
T1 construct: The extracellular domain of XPS1 (amino acids 36-650) was cloned by ligation independent cloning; made in house; host or cells: Hi5 insect cells, baculovirus (pMelBac B)
T1 sequence (Q9SD62 36-650): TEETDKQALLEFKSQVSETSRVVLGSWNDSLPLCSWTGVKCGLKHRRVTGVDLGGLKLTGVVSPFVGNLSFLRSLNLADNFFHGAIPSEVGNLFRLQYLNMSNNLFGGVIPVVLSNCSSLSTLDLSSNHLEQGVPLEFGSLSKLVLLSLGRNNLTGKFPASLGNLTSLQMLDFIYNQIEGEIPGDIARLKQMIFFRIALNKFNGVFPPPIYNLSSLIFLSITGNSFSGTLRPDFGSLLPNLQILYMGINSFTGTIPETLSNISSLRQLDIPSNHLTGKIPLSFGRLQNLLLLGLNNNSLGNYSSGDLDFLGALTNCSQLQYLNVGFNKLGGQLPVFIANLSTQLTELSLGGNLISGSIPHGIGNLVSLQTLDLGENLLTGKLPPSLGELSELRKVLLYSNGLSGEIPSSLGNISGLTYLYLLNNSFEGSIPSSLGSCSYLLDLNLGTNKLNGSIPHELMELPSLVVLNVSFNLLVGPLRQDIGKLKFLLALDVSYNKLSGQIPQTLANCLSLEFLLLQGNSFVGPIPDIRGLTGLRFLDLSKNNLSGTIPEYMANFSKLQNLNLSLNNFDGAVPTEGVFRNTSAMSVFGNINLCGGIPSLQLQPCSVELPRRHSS
Assay: biochemical
Format: binding
Description: For XPS1 expression in Hi5 cells, the ectodomain of XPS1 (36-650) was inserted into the baculovirus transfer vector pMelBac B (Invitrogen). The extracellular domain of XPS1 (amino acids 36-650) was cloned by ligation independent cloning between the existing Honey bee melettin signal sequence and the C-terminal Strep II-9x His tag. […] The StrepII-9x His fused XPS1 ectodomain was produced by secreted expression in baculovirus-infected insect cells, harvested 72 h post infection and purified by Ni-NTA affinity chromatography (Qiagen). The samples were processed twice with a Superdex 200 16/60 column (GE Healthcare) pre-equilibrated with 10 mM Bis-Tris pH 6.0, 150 mM NaCl. Protein purity was checked by SDS-PAGE.
The XPS1 ectodomain was kept at a constant concentration (0.5 μM) in a buffer containing 10 mM Bis-Tris pH6, 150 mM NaCl, 5 % glycerol and 0.01 % Tween, whereas varying peptide concentrations were added. Approximately 4–6 μL of each sample was loaded in a fused silica capillary (NanoTemper Technologies). Measurements were performed at room temperature in a Monolith NT.label free instrument at a constant LED power of 20 and MST power of 60 %. Measurements were performed repeatedly on two independent protein preparations to ensure reproducibility. […] Curve fitting was performed by using the NT affinity analysis software from Nanotemper.

Row | Sequence | Apparent EC50 range of XPS1 for peptide | EC50 | Overall KD of XPS1 binding | EC50 of binding to XPS1 ECD (additional replicate (Figure S7), XPS1 ECD 0.5 μM, pH6, MST power 60 %, NT affinity analysis) | Kd (read-out: KD of binding to XPS1 ECD)
1 | LIPEGKVAVTTTQAATERKPLEQPR [xup25] | in the high nM range | 0.381 µM | not able to calculate an accurate overall KD | – | –
2 | QRLSTGSRINSAKDDAAGLQIA [flg22, reference compound] | – | – | – | could not be fitted using the EC50 fit | 13.1 µM
